Test results as given in the NIST ThermoML archive (doi:10.1016/j.jct.2015.05.004).

Assay: xn = mol fraction of the nth substance listed
Details: 100 kPa, Liquid; for speed of sound: Frequency=3 MHz, Sing-around technique in a fixed-path interferometer; for mass density: Vibrating tube method

CC(=O)O [acetic acid] + CCCCn1cc[n+](C)c1.N#C[S-]
x2 = 0
Details	mass density [kg/m3]	speed of sound [m/s]
293.15 K	1049.75	1152.7
298.15 K	1044.13	1135.7
303.15 K	1038.48	1118.4
308.15 K	1032.83	1101.2
313.15 K	1027.18	1084

CCCCn1cc[n+](C)c1.N#C[S-] [1-butyl-3-methylimidazolium thiocyanate] + CC(=O)O
Details	mass density, 293.15 K [kg/m3]	mass density, 298.15 K [kg/m3]	mass density, 303.15 K [kg/m3]	mass density, 308.15 K [kg/m3]	mass density, 313.15 K [kg/m3]	speed of sound, 293.15 K [m/s]	speed of sound, 298.15 K [m/s]	speed of sound, 303.15 K [m/s]	speed of sound, 308.15 K [m/s]	speed of sound, 313.15 K [m/s]
x1 = 0.058	1064.97	1060.08	1055.2	1050.32	1045.44	1270.5	1252.4	1235.9	1218.7	1202
x1 = 0.1206	1070.89	1066.45	1062	1057.56	1053.12	1369.6	1353.9	1338	1322.1	1306.4
x1 = 0.1878	1072.93	1069.2	1064.96	1060.77	1056.64	1448.3	1433.8	1419	1404.2	1389.4
x1 = 0.2632	1073.93	1070.07	1066.21	1062.35	1058.51	1520	1506.3	1492.2	1478.1	1464.2
x1 = 0.3498	1073.95	1070.59	1066.92	1063.27	1059.63	1576.8	1563.6	1550.1	1536.6	1523.3
x1 = 0.4503	1074.04	1070.98	1067.53	1064.1	1060.67	1626.5	1613.6	1600.6	1587.6	1574.8
x1 = 0.5559	1073.89	1070.99	1067.68	1064.39	1061.21	1667	1658.3	1641.9	1629.3	1616.9
x1 = 0.6831	1073.66	1071.08	1067.9	1064.74	1061.59	1707.6	1695.4	1683.1	1670.8	1658.6
x1 = 0.8282	1073.35	1070.87	1067.81	1064.75	1061.71	1744.3	1732.4	1720.3	1708.4	1696.4
x1 = 0.9042	1073.19	1070.77	1067.74	1064.74	1061.75	1760.7	1749	1737	1725.2	1713.4
x1 = 1	1072.74	1070.34	1067.37	1064.42	1061.47	1778.8	1767.2	1755.4	1743.7	1732.1
